The values that follow come from ChEMBL document CHEMBL1131972, “Investigation of the 4-O-alkylamine substituent of non-peptide quinolone GnRH receptor antagonists” (Bioorg Med Chem Lett, 1999).

One assay concerns the target T1, Gonadotropin-releasing hormone receptor (Rattus norvegicus, UniProt P30969).
T1 sequence (P30969 whole entry): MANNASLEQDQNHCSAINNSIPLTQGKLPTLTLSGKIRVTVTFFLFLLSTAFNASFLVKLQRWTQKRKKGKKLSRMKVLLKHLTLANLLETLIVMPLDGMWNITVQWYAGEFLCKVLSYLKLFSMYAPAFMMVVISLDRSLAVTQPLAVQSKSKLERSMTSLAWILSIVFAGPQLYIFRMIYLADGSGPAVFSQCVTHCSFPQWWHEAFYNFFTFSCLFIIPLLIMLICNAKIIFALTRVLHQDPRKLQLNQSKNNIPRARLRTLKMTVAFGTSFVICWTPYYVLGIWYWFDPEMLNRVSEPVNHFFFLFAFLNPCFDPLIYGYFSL
Nature of the assay: Binding affinity for Gonadotropin-releasing hormone receptor in rat pituitary membrane at 10 buserelin as radioligand. The assay is classed as cell membranes.
`Cc1cc(C)cc(-c2c(O)nc3cc(Cl)c([N+](=O)[O-])cc3c2OCC[C@H]2CCCCN2)c1` registered an IC50 of 150 nM.

Consider `Cc1cc(C)cc(-c2c(OCC3CCCNC3)c3cc([N+](=O)[O-])c(Cl)cc3[nH]c2=O)c1` (stereo unspecified), for which the 50% inhibitory concentration (IC50) is 36 nM. Compared with the last molecule, the IC50 is about 4.2-fold lower. Still for that read-out and setting: the result for `Cc1cc(C)cc(-c2c(O)nc3cc(Cl)c([N+](=O)[O-])cc3c2OCC[C@H]2CCCCN2C)c1` reads 85 nM. Still for that read-out and setting: in the case of `Cc1cc(C)cc(-c2c(O)nc3cc(Cl)c([N+](=O)[O-])cc3c2OCC[C@@H]2CCCCN2)c1` it was 10 nM; in that of `Cc1cc(C)cc(-c2c(OCCC3CCCCCN3)c3cc([N+](=O)[O-])c(Cl)cc3[nH]c2=O)c1` (stereo unspecified), 36 nM; in that of `Cc1cc(C)cc(-c2c(O)nc3cc(Cl)c([N+](=O)[O-])cc3c2OCC[C@H]2CCCN2)c1`, 100 nM.

Regarding `Cc1cc(C)cc(-c2c(O)nc3cc(Cl)c([N+](=O)[O-])cc3c2OCC[C@@H]2CCCN2)c1`, the IC50 stood at 15 nM.

`Cc1cc(C)cc(-c2c(O)nc3cc(Cl)c([N+](=O)[O-])cc3c2OCCCC2CCCCN2)c1` (stereo unspecified) yielded an IC50 of 1420 nM. On the same count and under the same terms, the result for `Cc1cc(C)cc(-c2c(O)nc3cc(Cl)c([N+](=O)[O-])cc3c2OCC[C@@H]2CCN2)c1` reads 25 nM; that for `Cc1cc(C)cc(-c2c(O)nc3cc(Cl)c([N+](=O)[O-])cc3c2OCC[C@@H]2CCCCN2C)c1`, 20 nM.

A further assay addresses T1, Gonadotropin-releasing hormone receptor. Put plainly: Binding affinity for Gonadotropin-releasing hormone receptor in rat pituitary membrane at 10 buserelin as radioligand; NA is not active. It is filed as cell membranes.
For the molecule `Cc1cc(C)cc(-c2c(O)nc3cc(Cl)c([N+](=O)[O-])cc3c2OCCc2ccccn2)c1`, the IC50 entry is “Not Active”.

The IC50 is the midpoint of a concentration-inhibition curve. Higher therefore signals a need for much substance.
